Data as given in patent US20250145594A1, “MODULATORS OF THE INTEGRATED STRESS PATHWAY” (Calico Life Sciences LLC, priority 2020, published 2025).

System: ATF4 luciferase reporter in HEK293T cells
Experiment: ATF4-Luc assay (in vitro model of VWMD)
Assay type: cell-based, human
Details: HEK293T cells carrying the ATF4 luciferase reporter, 1 μg/mL tunicamycin, One Glo luminescence
How it was run: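 Tunicamycin (1 μg/mL) stress with co-added compound for 7 hours in HEK293T cells stably carrying an ATF4 5′-UTR–luciferase reporter. EC50 values come from the luminescent signal (One Glo).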

## O=C(NC12CC(n3cc(C(=O)N4CC[C@H](OC(F)(F)F)C4)cn3)(C1)C2)[C@H]1C[C@@H](O)c2cc(C(F)(F)F)ccc2O1 [Compound 326, (2R,4R)-4-hydroxy-N-(3-{4-[(3S)-3-(trifluoromethoxy)pyrrolidine-1-carbonyl]-1H-pyrazol-1-yl}bicyclo[1.1.1]pentan-1-yl)-6-(trifluoromethyl)-3,4-dihydro-2H-1-benzopyran-2-carboxamide]
Homo sapiens, HEK-293T, 7 h
  EC50: < 10 nM

## O=C(NC12CC(n3cc(OCCOC(F)(F)F)cn3)(C1)C2)[C@H]1C[C@@H](O)c2cc(C(F)(F)F)c(F)cc2O1 [Compound 483, (2R,4R)-7-fluoro-4-hydroxy-N-(3-{4-[2-(trifluoromethoxy)ethoxy]-1H-pyrazol-1-yl}bicyclo[1.1.1]pentan-1-yl)-6-(trifluoromethyl)-3,4-dihydro-2H-1-benzopyran-2-carboxamide]
Homo sapiens, HEK-293T, 7 h
  EC50: < 10 nM

## O=C(N[C@H]1CC[C@H](n2cc(OCCOC(F)(F)F)cn2)CC1)[C@H]1C[C@@H](O)c2ccccc2O1 [Compound 637, (2R,4R)-4-hydroxy-N-[(1r,4R)-4-{4-[2-(trifluoromethoxy)ethoxy]-1H-pyrazol-1-yl}cyclohexyl]-3,4-dihydro-2H-1-benzopyran-2-carboxamide]
Homo sapiens, HEK-293T, 7 h
  EC50: 50 to 250 nM

## O=C(NC12CC(n3cc(C[C@H]4C[C@@H](OC(F)(F)F)C4)cn3)(C1)C2)[C@H]1C[C@@H](O)c2cc(Cl)c(F)cc2O1 [Compound 532, (2R,4R)-6-chloro-7-fluoro-4-hydroxy-N-[3-(4-{[(1s,3R)-3-(trifluoromethoxy)cyclobutyl]methyl}-1H-pyrazol-1-yl)bicyclo[1.1.1]pentan-1-yl]-3,4-dihydro-2H-1-benzopyran-2-carboxamide]
Homo sapiens, HEK-293T, 7 h
  EC50: < 10 nM

## O=C(NC12CC(n3cc(OCCOC(F)F)cn3)(C1)C2)[C@H]1C[C@@H](O)c2cc(Cl)ccc2O1 [Compound 420, (2R,4R)-6-chloro-N-(3-{4-[2-(difluoromethoxy)ethoxy]-1H-pyrazol-1-yl}bicyclo[1.1.1]pentan-1-yl)-4-hydroxy-3,4-dihydro-2H-1-benzopyran-2-carboxamide]
Homo sapiens, HEK-293T, 7 h
  EC50: 10 to 50 nM

## O=C(NC12CC(c3ccc(-n4cnc(C(F)(F)F)c4)nc3)(C1)C2)[C@H]1C[C@@H](O)c2cc(Cl)ccc2O1 [Compound 559, (2R,4R)-6-chloro-4-hydroxy-N-(3-{6-[4-(trifluoromethyl)-1H-imidazol-1-yl]pyridin-3-yl}bicyclo[1.1.1]pentan-1-yl)-3,4-dihydro-2H-1-benzopyran-2-carboxamide]
Homo sapiens, HEK-293T, 7 h
  EC50: 10 to 50 nM

## O=C(NC12CC(n3cc(O[C@H]4CC[C@H](OC(F)(F)F)C4)cn3)(C1)C2)[C@H]1C[C@@H](O)c2cc(Cl)ccc2O1 (racemic) [Compound 586, (2R,4R)-6-chloro-4-hydroxy-N-[3-(4-{[(1RS,3RS)-3-(trifluoromethoxy)cyclopentyl]oxy}-1H-pyrazol-1-yl)bicyclo[1.1.1]pentan-1-yl]-3,4-dihydro-2H-1-benzopyran-2-carboxamide]
Homo sapiens, HEK-293T, 7 h
  EC50: 10 to 50 nM

## O=C(NC12CC(n3cnc(-c4ccc(Cl)c(F)c4F)c3)(C1)C2)[C@H]1C[C@@H](O)c2cc(Cl)ccc2O1 [Compound 394, (2R,4R)-6-chloro-N-{3-[4-(4-chloro-2,3-difluorophenyl)-1H-imidazol-1-yl]bicyclo[1.1.1]pentan-1-yl}-4-hydroxy-3,4-dihydro-2H-1-benzopyran-2-carboxamide]
Homo sapiens, HEK-293T, 7 h
  EC50: < 10 nM

## O=C(CO[C@H]1C[C@@H](OC(F)(F)F)C1)NC12CC(NC(=O)[C@H]3C[C@@H](O)c4cc(C(F)(F)F)ccc4O3)(C1)C2 [Compound 493, (2R,4R)-4-hydroxy-N-[3-(2-{[(1s,3S)-3-(trifluoromethoxy)cyclobutyl]oxy}acetamido)bicyclo[1.1.1]pentan-1-yl]-6-(trifluoromethyl)-3,4-dihydro-2H-1-benzopyran-2-carboxamide]
Homo sapiens, HEK-293T, 7 h
  EC50: < 10 nM

## C[C@@H](COC(F)(F)F)Oc1cnn(C23CC(NC(=O)[C@H]4C[C@@H](O)c5cc(C(F)(F)F)ccc5O4)(C2)C3)c1 [Compound 441, (2R,4R)-4-hydroxy-N-[3-(4-{[(2S)-1-(trifluoromethoxy)propan-2-yl]oxy}-1H-pyrazol-1-yl)bicyclo[1.1.1]pentan-1-yl]-6-(trifluoromethyl)-3,4-dihydro-2H-1-benzopyran-2-carboxamide]
Homo sapiens, HEK-293T, 7 h
  EC50: 10 to 50 nM

## O=C(COc1ccc(Cl)c(F)c1)NC12CC(c3ccc(C(=O)N4CCC(C(F)(F)F)C4)nc3)(C1)C2 (stereo not shown) [Compound 619, 2-(4-chloro-3-fluorophenoxy)-N-(3-{6-[3-(trifluoromethyl)pyrrolidine-1-carbonyl]pyridin-3-yl}bicyclo[1.1.1]pentan-1-yl)acetamide]
Homo sapiens, HEK-293T, 7 h
  EC50: 10 to 50 nM

## O=C(NC12CC(n3cc(C(=O)N4CCC(OC(F)(F)F)CC4)cn3)(C1)C2)[C@H]1C[C@@H](O)c2cc(Cl)ccc2O1 [Compound 366, (2R,4R)-6-chloro-4-hydroxy-N-(3-{4-[4-(trifluoromethoxy)piperidine-1-carbonyl]-1H-pyrazol-1-yl}bicyclo[1.1.1]pentan-1-yl)-3,4-dihydro-2H-1-benzopyran-2-carboxamide]
Homo sapiens, HEK-293T, 7 h
  EC50: 50 to 250 nM

## O=C(NC12CC(n3cc(-c4ccc(OC(F)(F)F)cn4)cn3)(C1)C2)[C@H]1C[C@H](O)c2cc(Cl)c(F)cc2O1 [Compound 476, (2R,4S)-6-chloro-7-fluoro-4-hydroxy-N-(3-{4-[5-(trifluoromethoxy)pyridin-2-yl]-1H-pyrazol-1-yl}bicyclo[1.1.1]pentan-1-yl)-3,4-dihydro-2H-1-benzopyran-2-carboxamide]
Homo sapiens, HEK-293T, 7 h
  EC50: < 10 nM

## O=C(NC12CC(n3cc(OCCOC(F)(F)F)cn3)(C1)C2)[C@H]1C[C@@H](O)c2cc(F)ccc2O1 [Compound 418, (2R,4R)-6-fluoro-4-hydroxy-N-(3-{4-[2-(trifluoromethoxy)ethoxy]-1H-pyrazol-1-yl}bicyclo[1.1.1]pentan-1-yl)-3,4-dihydro-2H-1-benzopyran-2-carboxamide]
Homo sapiens, HEK-293T, 7 h
  EC50: 10 to 50 nM

## COc1ccc2nn(C34CC(NC(=O)[C@H]5C[C@@H](O)c6cc(Cl)c(F)cc6O5)(C3)C4)cc2c1 [Compound 505, (2R,4R)-6-chloro-7-fluoro-4-hydroxy-N-[3-(5-methoxy-2H-indazol-2-yl)bicyclo[1.1.1]pentan-1-yl]-3,4-dihydro-2H-1-benzopyran-2-carboxamide]
Homo sapiens, HEK-293T, 7 h
  EC50: < 10 nM

## O=C(NC12CC(c3cnn(CCCOC(F)(F)F)c3)(C1)C2)[C@H]1C[C@@H](O)c2cc(Cl)ccc2O1 [Compound 528, (2R,4R)-6-chloro-4-hydroxy-N-(3-{1-[3-(trifluoromethoxy)propyl]-1H-pyrazol-4-yl}bicyclo[1.1.1]pentan-1-yl)-3,4-dihydro-2H-1-benzopyran-2-carboxamide]
Homo sapiens, HEK-293T, 7 h
  EC50: 10 to 50 nM

## O=C(NC12CC(n3cc(-c4ccc(C(F)(F)F)cn4)cn3)(C1)C2)[C@@H]1C[C@@H](O)c2cc(Cl)ccc2O1 [Compound 317, (2S,4R)-6-chloro-4-hydroxy-N-(3-{4-[5-(trifluoromethyl)pyridin-2-yl]-1H-pyrazol-1-yl}bicyclo[1.1.1]pentan-1-yl)-3,4-dihydro-2H-1-benzopyran-2-carboxamide]
Homo sapiens, HEK-293T, 7 h
  EC50: 10 to 50 nM

## O=C(NC12CC(n3cc(OCCOC(F)(F)F)nn3)(C1)C2)[C@H]1C[C@@H](O)c2cc(Cl)ccc2O1 [Compound 487, (2R,4R)-6-chloro-4-hydroxy-N-(3-{4-[2-(trifluoromethoxy)ethoxy]-1H-1,2,3-triazol-1-yl}bicyclo[1.1.1]pentan-1-yl)-3,4-dihydro-2H-1-benzopyran-2-carboxamide]
Homo sapiens, HEK-293T, 7 h
  EC50: < 10 nM

## O=C(N[C@H]1CC[C@H](n2cc(N3CC[C@@H](OC(F)(F)F)C3)cn2)CC1)[C@H]1C[C@@H](O)c2cc(Cl)ccc2O1 [Compound 581, (2R,4R)-6-chloro-4-hydroxy-N-[(1R,4R)-4-{4-[(3R)-3-(trifluoromethoxy)pyrrolidin-1-yl]-1H-pyrazol-1-yl}cyclohexyl]-3,4-dihydro-2H-1-benzopyran-2-carboxamide]
Homo sapiens, HEK-293T, 7 h
  EC50: 10 to 50 nM

## O=C(NC12CC(n3cc(OCCOCC(F)(F)F)cn3)(C1)C2)[C@H]1C[C@@H](O)c2cc(Cl)ccc2O1 [Compound 425, (2R,4R)-6-chloro-4-hydroxy-N-(3-{4-[2-(2,2,2-trifluoroethoxy)ethoxy]-1H-pyrazol-1-yl}bicyclo[1.1.1]pentan-1-yl)-3,4-dihydro-2H-1-benzopyran-2-carboxamide]
Homo sapiens, HEK-293T, 7 h
  EC50: < 10 nM

## O=C(NC12CC(c3cc(OCCCOC(F)(F)F)ncn3)(C1)C2)[C@H]1C[C@@H](O)c2cc(Cl)ccc2O1 [Compound 648, (2R,4R)-6-chloro-4-hydroxy-N-(3-{6-[3-(trifluoromethoxy)propoxy]pyrimidin-4-yl}bicyclo[1.1.1]pentan-1-yl)-3,4-dihydro-2H-1-benzopyran-2-carboxamide]
Homo sapiens, HEK-293T, 7 h
  EC50: < 10 nM

## O=C(N[C@H]1C[C@H]2CC[C@@H](C1)N2CCCOc1ccc(Cl)cc1)C1C[C@@H](O)c2cc(Cl)ccc2O1 (stereo partly drawn) [Compound 125, (2R,4R)-6-chloro-N-{(1R,3r,5S)-8-[3-(4-chlorophenoxy)propyl]-8-azabicyclo[3.2.1]octan-3-yl}-4-hydroxy-3,4-dihydro-2H-1-benzopyran-2-carboxamide]
Homo sapiens, HEK-293T, 7 h
  EC50: 50 to 250 nM

## COc1ccc2nn(C34CC(NC(=O)[C@H]5C[C@@H](O)c6cc(Cl)c(Cl)cc6O5)(C3)C4)cc2c1 [Compound 507, (2R,4R)-6,7-dichloro-4-hydroxy-N-[3-(5-methoxy-2H-indazol-2-yl)bicyclo[1.1.1]pentan-1-yl]-3,4-dihydro-2H-1-benzopyran-2-carboxamide]
Homo sapiens, HEK-293T, 7 h
  EC50: < 10 nM

## O=C(CO[C@H]1C[C@@H](OC(F)(F)F)C1)NC12CC(NC(=O)[C@@H]3CC(O)c4cc(Cl)ccc4O3)(C1)C2 (stereo in doubt) [Compound 295, (2S,4S)-6-chloro-4-hydroxy-N-[3-(2-{[cis-3-(trifluoromethoxy)cyclobutyl]oxy}acetamido)bicyclo[1.1.1]pentan-1-yl]-3,4-dihydro-2H-1-benzopyran-2-carboxamide]
7 hours
  EC50: 10 to 50 nM

## O=C(NC12CC(n3cc(-c4ccc(OC(F)F)cn4)cn3)(C1)C2)[C@H]1C[C@@H](O)c2cc(Cl)ccc2O1 [Compound 575, (2R,4R)-6-chloro-N-(3-{4-[5-(difluoromethoxy)pyridin-2-yl]-1H-pyrazol-1-yl}bicyclo[1.1.1]pentan-1-yl)-4-hydroxy-3,4-dihydro-2H-1-benzopyran-2-carboxamide]
Homo sapiens, HEK-293T, 7 h
  EC50: < 10 nM
